Reference: patent US8927717B1, “Thiochromeno[2,3-c]quinolin-12-one derivatives, preparation method and application thereof” (National Defense Medical Center, priority 2014, dated 2015)

Key:
Format in all cases: cell-based
M14 = conditions: 10^−5 molar; for Growth percent: M14
MCF7 = conditions: 10^−5 molar; for Growth percent: MCF7
PC-3 = conditions: 10^−5 molar; for Growth percent: PC-3
T-47D = conditions: 10^−5 molar; for Growth percent: T-47D
SNB-75 = conditions: 10^−5 molar; for Growth percent: SNB-75
DU-145 = conditions: 10^−5 molar; for Growth percent: DU-145
MDA-MB-435 = conditions: 10^−5 molar; for Growth percent: MDA-MB-435
MDA-MB-231/ATCC = conditions: 10^−5 molar; for Growth percent: MDA-MB-231/ATCC
ACHN = conditions: 10^−5 molar; for Growth percent: ACHN
SN12C = conditions: 10^−5 molar; for Growth percent: SN12C
HCT-15 = conditions: 10^−5 molar; for Growth percent: HCT-15
NCI-H23 = conditions: 10^−5 molar; for Growth percent: NCI-H23
UO-31 = conditions: 10^−5 molar; for Growth percent: UO-31
MOLT-4 = conditions: 10^−5 molar; for Growth percent: MOLT-4
SW-620 = conditions: 10^−5 molar; for Growth percent: SW-620
LOX IMVI = conditions: 10^−5 molar; for Growth percent: LOX IMVI
KM12 = test: cells; conditions: 10^−5 molar; for Growth percent: KM12
60 cancer cell lines = test: NCI 60-cell screen, SRB, whole panel (mean, delta, range); conditions: 10^−5 molar
SK-MEL-5 = conditions: 10^−5 molar; for Growth percent: SK-MEL-5
RXF 393 = conditions: 10^−5 molar; for Growth percent: RXF 393
HT29 = conditions: 10^−5 molar; for Growth percent: HT29
UACC-62 = conditions: 10^−5 molar; for Growth percent: UACC-62
SNB-19 = conditions: 10^−5 molar; for Growth percent: SNB-19
SR = conditions: 10^−5 molar; for Growth percent: SR
HOP-62 = conditions: 10^−5 molar; for Growth percent: HOP-62
SK-OV-3 = conditions: 10^−5 molar; for Growth percent: SK-OV-3
COLO 205 = conditions: 10^−5 molar; for Growth percent: COLO 205
TK-10 = conditions: 10^−5 molar; for Growth percent: TK-10
OVCAR-5 = conditions: 10^−5 molar; for Growth percent: OVCAR-5
NCI-H460 = conditions: 10^−5 molar; for Growth percent: NCI-H460
CCRF-CEM = conditions: 10^−5 molar; for Growth percent: CCRF-CEM
HL-60(TB) = conditions: 10^−5 molar; for Growth percent: HL-60(TB)
K-562 = conditions: 10^−5 molar; for Growth percent: K-562
BT-549 = conditions: 10^−5 molar; for Growth percent: BT-549
OVCAR-8 = conditions: 10^−5 molar; for Growth percent: OVCAR-8
NCI-H522 = conditions: 10^−5 molar; for Growth percent: NCI-H522
A549/ATCC = conditions: 10^−5 molar; for Growth percent: A549/ATCC
NCI/ADR-RES = conditions: 10^−5 molar; for Growth percent: NCI/ADR-RES
HCT-116 = conditions: 10^−5 molar; for Growth percent: HCT-116
[1] = Non-small cell lung cancer, 48 hours, SRB

Compound: O=c1c2cc(Cl)ccc2sc2c(NCCc3ccccc3)nc3ccccc3c12 [Compound N30, 10-Chloro-6-(phenethylamino)-12H-thiochromeno[2,3-c]quinolin-12-one]
- Growth percent (M14): 97.97%
- Growth percent (MCF7): 60.91%
- Growth percent (PC-3): 87.25%
- Growth percent (T-47D): 71.96%
- Growth percent (SNB-75): 68.76%
- Growth percent (DU-145): 100.17%
- Growth percent (MDA-MB-435): 106.06%
- Growth percent (MDA-MB-231/ATCC): 79.55%
- Growth percent (ACHN): 90.85%
- Growth percent (SN12C): 86.54%
- Growth percent (HCT-15): 91.82%
- Growth percent (NCI-H23): 89.89%
- Growth percent (UO-31): 75.82%
- Growth percent (MOLT-4): 87.33%
- Growth percent (SW-620): 93.45%
- Growth percent (LOX IMVI): 89.03%
- Growth percent (KM12): 90.99%
- Growth percent, Delta (60 cancer cell lines; delta over panel): 32.31%
- Growth percent, Mean (60 cancer cell lines; mean over panel): 93.22%
- Growth percent, Range (60 cancer cell lines; range over panel): 61.70%
- Growth percent (SK-MEL-5): 89.49%
- Growth percent (RXF 393): 96.74%
- Growth percent (HT29): 109.15%
- Growth percent (UACC-62): 74.67%
- Growth percent (SNB-19): 100.6%
- Growth percent (SR): 89.88%
- Growth percent (HOP-62): 103.19%
- Growth percent (SK-OV-3): 102.16%
- Growth percent (COLO 205): 100.02%
- Growth percent (TK-10): 122.13%
- Growth percent (OVCAR-5): 102.03%
- Growth percent (NCI-H460): 95.11%
- Growth percent (CCRF-CEM): 114.29%
- Growth percent (HL-60(TB)): 105.68%
- Growth percent (K-562): 82.82%
- Growth percent (BT-549): 106.85%
- Growth percent (OVCAR-8): 95.61%
- Growth percent (NCI-H522): 93.93%
- Growth percent (A549/ATCC): 88.44%
- Growth percent (NCI/ADR-RES): 96.51%
- Growth percent (HCT-116): 85.77%

Compound: CN(C)CCCNc1nc2ccccc2c2c(=O)c3cc(Cl)ccc3sc12 [Compound N17, 10-Chloro-6-((3-(dimethylamino)propyl)amino)-12H-thiochromeno[2,3-c]quinolin-12-one]
- Growth percent (M14): 103.73%
- Growth percent (MCF7): 51.20%
- Growth percent (PC-3): 81.31%
- Growth percent (T-47D): 79.82%
- Growth percent (SNB-75): 60.99%
- Growth percent (DU-145): 97.29%
- Growth percent (MDA-MB-435): 93.04%
- Growth percent (MDA-MB-231/ATCC): 73.39%
- Growth percent (ACHN): 86.20%
- Growth percent (SN12C): 83.63%
- Growth percent (HCT-15): 80.92%
- Growth percent (NCI-H23): 100.25%
- Growth percent (UO-31): 72.62%
- Growth percent (MOLT-4): 70.71%
- Growth percent (SW-620): 91.74%
- Growth percent (LOX IMVI): 66.16%
- Growth percent (KM12): 97.75%
- Growth percent, Delta (60 cancer cell lines; delta over panel): 44.56%
- Growth percent, Mean (60 cancer cell lines; mean over panel): 85.32%
- Growth percent, Range (60 cancer cell lines; range over panel): 68.13%
- Growth percent (SK-MEL-5): 91.73%
- Growth percent (RXF 393): 76.32%
- Growth percent (HT29): 90.98%
- Growth percent (UACC-62): 102.63%
- Growth percent (SNB-19): 97.83%
- Growth percent (SR): 48.48%
- Growth percent (HOP-62): 86.73%
- Growth percent (SK-OV-3): 99.91%
- Growth percent (COLO 205): 91.35%
- Growth percent (TK-10): 108.89%
- Growth percent (OVCAR-5): 106.26%
- Growth percent (NCI-H460): 88.06%
- Growth percent (CCRF-CEM): 69.06%
- Growth percent (HL-60(TB)): 77.32%
- Growth percent (K-562): 47.53%
- Growth percent (BT-549): 99.81%
- Growth percent (OVCAR-8): 98.38%
- Growth percent (NCI-H522): 98.76%
- Growth percent (A549/ATCC): 81.19%
- Growth percent (NCI/ADR-RES): 96.94%
- Growth percent (HCT-116): 70.19%

Compound: CC(C)CC(C)Nc1nc2ccccc2c2c(=O)c3cc(Cl)ccc3sc12 (stereo not drawn) [Compound N13, 10-Chloro-6-((4-methylpentan-2-yl)amino)-12H-thiochromeno[2,3-c]quinolin-12-one]
- Growth percent M14 (M14; Melanoma, 48 hours, SRB): 94.27%
- Growth percent MCF7 (Table 2: MCF) (MCF7; Breast cancer, 48 hours, SRB): 73.82%
- Growth percent PC-3 (PC-3; Prostate cancer, 48 hours, SRB): 86.33%
- Growth percent T-47D (T-47D; Breast cancer, 48 hours, SRB): 73.76%
- Growth percent SNB-75 (SNB-75; CNS cancer, 48 hours, SRB): 85.02%
- Growth percent DU-145 (DU-145; Prostate cancer, 48 hours, SRB): 113.48%
- Growth percent MDA-MB-435 (MDA-MB-435; Melanoma, 48 hours, SRB): 108.08%
- Growth percent MDA-MB-231/ATCC (MDA-MB-231/ATCC; Breast cancer, 48 hours, SRB): 84.22%
- Growth percent ACHN (ACHN; Renal cancer, 48 hours, SRB): 91.24%
- Growth percent SN12C (SN12C; Renal cancer, 48 hours, SRB): 95.14%
- Growth percent HCT-15 (HCT-15; Colon cancer, 48 hours, SRB): 96.97%
- Growth percent NCI-H23 (NCI-H23; [1]): 95.10%
- Growth percent UO-31 (UO-31; Renal cancer, 48 hours, SRB): 78.64%
- Growth percent MOLT-4 (MOLT-4; Leukemia, 48 hours, SRB): 93.68%
- Growth percent SW-620 (SW-620; Colon cancer, 48 hours, SRB): 92.80%
- Growth percent LOX IMVI (LOX IMVI; Melanoma, 48 hours, SRB): 98.90%
- Growth percent KM12 (KM12; Colon cancer, 48 hours, SRB): 105.66%
- Growth percent, Delta (60 cancer cell lines; delta over the cell panel, 48 hours, SRB): 22.57%
- Growth percent, Mean (60 cancer cell lines; mean over the cell panel, 48 hours, SRB): 96.33%
- Growth percent, Range (60 cancer cell lines; range over the cell panel, 48 hours, SRB): 49.47%
- Growth percent SK-MEL-5 (SK-MEL-5; Melanoma, 48 hours, SRB): 90.71%
- Growth percent RXF 393 (RXF 393; Renal cancer, 48 hours, SRB): 98.67%
- Growth percent HT29 (HT29; Colon cancer, 48 hours, SRB): 121.02%
- Growth percent UACC-62 (UACC-62; Melanoma, 48 hours, SRB): 96.09%
- Growth percent SNB-19 (SNB-19; CNS cancer, 48 hours, SRB): 106.79%
- Growth percent SR (SR; Leukemia, 48 hours, SRB): 97.29%
- Growth percent HOP-62 (HOP-62; [1]): 88.69%
- Growth percent SK-OV-3 (SK-OV-3; Ovarian cancer, 48 hours, SRB): 86.70%
- Growth percent COLO 205 (COLO 205; Colon cancer, 48 hours, SRB): 93.45%
- Growth percent TK-10 (TK-10; Renal cancer, 48 hours, SRB): 123.23%
- Growth percent OVCAR-5 (OVCAR-5; Ovarian cancer, 48 hours, SRB): 101.36%
- Growth percent NCI-H460 (NCI-H460; [1]): 95.17%
- Growth percent CCRF-CEM (CCRF-CEM; Leukemia, 48 hours, SRB): 98.57%
- Growth percent HL-60(TB) (HL-60(TB); Leukemia, 48 hours, SRB): 103.96%
- Growth percent K-562 (K-562; Leukemia, 48 hours, SRB): 106.64%
- Growth percent BT-549 (BT-549; Breast cancer, 48 hours, SRB): 103.61%
- Growth percent OVCAR-8 (OVCAR-8; Ovarian cancer, 48 hours, SRB): 92.79%
- Growth percent NCI-H522 (NCI-H522; [1]): 102.30%
- Growth percent A549/ATCC (A549/ATCC; [1]): 101.98%
- Growth percent NCI/ADR-RES (NCI/ADR-RES; Ovarian cancer, 48 hours, SRB): 98.47%
- Growth percent HCT-116 (HCT-116; Colon cancer, 48 hours, SRB): 90.30%
